Experimental data as given in ChEMBL document CHEMBL3244190, “2,3-Dihydroxy-9-amino-9,10-dihydrophenanthrene, a rigid congener of dopamine and isoapomorphine” (J Med Chem, 1978).
Activity calls are given as the source filed them. No cut-off for these calls is given here.

Tests used:
[1] = target: T1, Adenylate cyclase (Rattus norvegicus) (UniProt D4A3N4+P26770+Q04400+P26769+Q03343+P40146+Q8CFM9+P21932); experiment: Activation of rat striatal homogenate adenylate cyclase assessed as cAMP level at 100 uM after 2.5 mins relative to control
[2] = target: T1, Adenylate cyclase (Rattus norvegicus); experiment: Inhibition of dopamine-induced adenylate cyclase activation in rat striatal homogenate assessed as enzyme activity at 100 uM after 2.5 mins relative to control; set-up: scale not given: the % may be the effect or the level left
[3] = target: T1, Adenylate cyclase (Rattus norvegicus); experiment: Activation of rat striatal homogenate adenylate cyclase assessed as cAMP level at 10 uM after 2.5 mins relative to control
[4] = tested on: Canis familiaris; experiment: Induction of vasodilation in intraarterially dosed anesthetized Mongrel dog at 3 umol; format: functional, organism-based; conditions: Canis lupus familiaris

| Activity [1] [%] | Activity [2] [%] | Activity [3] [%] | Compound | Activity [4] |
| --- | --- | --- | --- | --- |
| 150 |  |  | NCCc1ccc(O)c(O)c1 |  |
| 92 | 149 | 100 | NC1Cc2cc(O)c(O)cc2-c2ccccc21 (stereo not given) | inactive |
